The test system of this experiment is HCV replicon. The experiment is described as follows: Replicon based assay of HCV replication inhibition (NPT ELISA). Type of experiment: cell-based, Hepatitis C virus. The conditions noted are these: Hepatitis C virus, Huh-7, 72 h, Table I; Huh-7 HCV replicon-containing cells, three days; read-out: Activity. The procedure, abridged:
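Huh-7 cells carrying a bicistronic HCV replicon (neo, EMCV-IRES-driven NS3–NS5B) treated overnight after seeding with usually 6 concentrations, 10 to 0.03 micromolar, for three days at 37° C without G418. Replication read as NPT level by captured ELISA; matched-DMSO wells and interferon alpha as controls.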
For orientation: A replicon is a self-replicating genome or part of one, used to study replication in cells.
On to `CCCCCOc1ccc(N(C)c2nc(C(=O)O)cs2)cc1C(F)(F)F` [compound 158, 2-(N-(3-(trifluoromethyl)-4-(pentyloxy)phenyl)-N-methylamino)thiazole-4-carboxylic acid], for which the EC50 was more than 10 µM.

Take `CCCCCOc1ccc(N(C)c2nc(C(=O)Nc3ccc(Cl)cc3)cs2)cc1C(F)(F)F` [compound 159, 2-(N-(3-(trifluoromethyl)-4-(pentyloxy)phenyl)-N-methylamino)-N-(4-chlorophenyl)thiazole-4-carboxamide]: the EC50 was more than 10 µM.

As to `CCCCCOc1ccc(N(C)c2nc(C(=O)Nc3ccc(C#N)cc3)cs2)cc1C(F)(F)F` [compound 160, 2-(N-(3-(trifluoromethyl)-4-(pentyloxy)phenyl)-N-methylamino)-N-(4-cyanophenyl)thiazole-4-carboxamide], the EC50 is more than 10 µM.

As to `CCCCCOc1ccc(Nc2nc(C(N)CC(C)C)cs2)cc1C(F)(F)F` (stereo not shown) [compound 161, 4-(1-amino-3-methylbutyl)-N-(3-(trifluoromethyl)-4-(pentyloxy)phenyl)thiazol-2-amine], the EC50 is 1 to 10 µM.

With `CCCCCOc1ccc(N(C)c2nc(C(=O)Nc3cccnc3)cs2)cc1C(F)(F)F` [compound 162, 2-(N-(3-(trifluoromethyl)-4-(pentyloxy)phenyl)-N-methylamino)-N-(pyridin-3-yl)thiazole-4-carboxamide], the EC50 is more than 10 µM.

For the compound `CCCCCOc1ccc(Nc2ncc(C(=O)Nc3cccnc3)s2)cc1C(F)(F)F` [compound 163, 2-(3-(trifluoromethyl)-4-(pentyloxy)phenylamino)-N-(pyridin-3-yl)thiazole-5-carboxamide], the EC50 was less than 1 µM.

In the case of `COc1ccc(OC)c(Nc2nc(-c3c(C)nc4sccn34)cs2)c1` [compound 164, N-(2,5-dimethoxyphenyl)-4-(6-methylimidazo[2,1-b]thiazol-5-yl)thiazol-2-amine], the EC50 was more than 10 µM.

`COc1ccc(Nc2nc(-c3c(C)nc4sccn34)cs2)cc1` [compound 165, N-(4-methoxyphenyl)-4-(6-methylimidazo[2,1-b]thiazol-5-yl)thiazol-2-amine]: the EC50 is less than 1 µM.

For `CC(=O)c1cccc(Nc2nc(-c3c(C)nc4cc(C)ccn34)cs2)c1` [compound 167, 1-(3-(4-(2,7-dimethylH-imidazo[1,2-a]pyridin-3-yl)thiazol-2-ylamino)phenyl)ethanone], the EC50 was more than 10 µM.

Turning to `Cc1c(-c2csc(Nc3ccccc3)n2)sc2ncnn12` [compound 168, 4-(6-methylthiazolo[3,2-b][1,2,4]triazol-5-yl)-N-phenylthiazol-2-amine], the EC50 was in the range of 1 to 10 µM.

Regarding `COc1ccc(-c2csc(Nc3ccc4c(c3)OCO4)n2)cc1F` [compound 169, N-(benzo[d][1,3]dioxol-5-yl)-4-(3-fluoro-4-methoxyphenyl)thiazol-2-amine], the EC50 is more than 10 µM.

On to `Cc1ccnc(Nc2nc(-c3c(C)nc4sccn34)cs2)c1` [compound 170, 4-methyl-N-(4-(6-methylimidazo[2,1-b]thiazol-5-yl)thiazol-2-yl)pyridin-2-amine], for which the EC50 was more than 10 µM.

As to `CCCCCOc1ccc(Nc2nc(CN3CCOCC3)cs2)cc1C(F)(F)F` [compound 171, N-(3-(trifluoromethyl)-4-(pentyloxy)phenyl)-4-(morpholinomethyl)thiazol-2-amine], the EC50 was less than 1 µM.

For the compound `CCCCCOc1ccc(Nc2nc(CN(C)C)cs2)cc1C(F)(F)F` [compound 172, 4-((dimethylamino)methyl)-N-(3-(trifluoromethyl)-4-(pentyloxy)phenyl)thiazol-2-amine], the EC50 was less than 1 µM.

As to `CCCCCOc1ccc(N(C(C)=O)c2nc(C(=O)Nc3cccnc3)cs2)cc1C(F)(F)F` [compound 173, 2-(N-(3-(trifluoromethyl)-4-(pentyloxy)phenyl)acetamido)-N-(pyridin-3-yl)thiazole-4-carboxamide], the EC50 is more than 10 µM.

On to `CCCCCOc1ccc(Nc2nc(-c3cccc(F)c3)cs2)cc1F` [compound 174, N-(3-fluoro-4-(pentyloxy)phenyl)-4-(3-fluorophenyl)thiazol-2-amine], for which the EC50 is less than 1 µM.

Source of the values: patent publication US8088806B2 (Achillion Pharmaceuticals, Inc., priority 2005, dated 2012).
